Among the test systems are A498 renal; A549 NSCLC; ACHN renal; DU-145 prostate; MCF7 breast; OVCAR-5 ovarian; SK-MEL-2 melanoma; SK-OV-3 ovarian; DLD-1 colon; LXFL 529 NSCLC; SNB-78 CNS; KM20L2 colon.
Holding throughout (experiment): growth of human tumour cells (NCI), 48 h

GI50 and TGI data for 10 compounds are collected here from PubChem BioAssay (NCI).

Structures are written as SMILES. Where “and” joins values, the source holds several entries; their conditions need not be identical. Identical values can stand only once.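 48-hour exposure; five concentrations; linearly interpolated endpoints. GI50: concentration for 50% inhibition of growth. Definition used: TGI = concentration required for complete inhibition of growth.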

Consider `CCCCCCCCCCCCCCCCCC1=NC(C)(C)CN1CC(C)O` (stereo unspecified), for which the GI50 in the assay with A498 renal was 15.3 µM; with A549 NSCLC, 3 µM; with ACHN renal, 7.94 µM; in the assay on DU-145 prostate it was 3.66 µM; with MCF7 breast, 3.09 µM; in the assay on OVCAR-5 ovarian, 15.5 µM. The GI50 with SK-MEL-2 melanoma was 15.6 µM; with SK-OV-3 ovarian, 18.8 µM. The TGI was 32.2 µM in the assay on A498 renal; 7.12 µM with A549 NSCLC; 21.9 µM in the assay on ACHN renal; 13.1 µM with DU-145 prostate; 14.1 µM in the assay with MCF7 breast; 31.7 µM with OVCAR-5 ovarian. Besides, the TGI turned out to be 31 µM with SK-MEL-2 melanoma and 37 µM in the assay on SK-OV-3 ovarian.

For `CCC1CC2C(=O)N(c3ccccc3)C(=O)C2c2[nH]c3ccccc3c21` (stereo unspecified), the TGI in the assay on A498 renal was 67.7 µM; in the assay on A549 NSCLC, > 100 µM; in the assay on ACHN renal it was > 100 µM; with DLD-1 colon, > 100 µM; in the assay on LXFL 529 NSCLC it was 70.4 µM; with OVCAR-5 ovarian, > 100 µM. Besides, the TGI with SK-OV-3 ovarian turned out to be 29.3 µM; with SNB-78 CNS it was 75.1 µM.

Turning to `O=C1c2ccccc2-[n+]2ccc3c([nH]c4ccccc43)c21`, the TGI in the assay on A498 renal is 3.15 µM; in the assay on A549 NSCLC, 2.7 µM; in the assay with ACHN renal, 4.08 µM; with DU-145 prostate, 2.54 µM; in the assay with MCF7 breast it was 0.834 µM; in the assay with OVCAR-5 ovarian, 1.48 µM. The TGI in the assay on SK-MEL-2 melanoma is 0.427 µM; with SK-OV-3 ovarian, 6.27 µM.

For the compound `COc1ccc(OC)c(NC(=O)CCC/C(CC(=O)c2ccc(O)c(OC)c2)=N\Nc2nnc(C)n2N)c1`, the TGI with A498 renal, with A549 NSCLC, with ACHN renal, in the assay with DLD-1 colon, with KM20L2 colon and with LXFL 529 NSCLC was > 100 µM throughout. For the same compound, the TGI in the assay with OVCAR-5 ovarian, in the assay on SK-MEL-2 melanoma and with SK-OV-3 ovarian was > 100 µM each time.

Consider `Nc1ccccc1C#C/C=C\C#Cc1ccc(OCCCNC(=O)c2cc3ccccc3[nH]2)cc1`, for which the GI50 with A498 renal is 23 µM; in the assay on A549 NSCLC, 11.6 µM; with ACHN renal, 6.61 µM; in the assay on DU-145 prostate, 35.4 µM; with MCF7 breast, 1.26 µM; in the assay on OVCAR-5 ovarian it was 32.3 µM. The GI50 with SK-MEL-2 melanoma is > 100 µM; with SK-OV-3 ovarian, 4.36 µM. The TGI with A498 renal is 48.3 µM; in the assay on A549 NSCLC it was 31.3 µM; with ACHN renal it was 40.9 µM; in the assay on DU-145 prostate, > 100 µM; in the assay with MCF7 breast, 7.15 µM; in the assay with OVCAR-5 ovarian it was > 100 µM. In addition, the TGI was > 100 µM in the assay on SK-MEL-2 melanoma and 33.1 µM in the assay on SK-OV-3 ovarian.

Consider `COc1cc2nc(SCc3cc(OC)c(OC)c(OC)c3)n(Cc3ccccc3)c(=O)c2cc1OC`, for which the GI50 in the assay with A498 renal is 1.62 µM; in the assay on A549 NSCLC, 3.14 µM; in the assay with ACHN renal, 4.83 µM; in the assay on DU-145 prostate, 5.38 µM; in the assay with MCF7 breast it was 0.742 µM; in the assay on OVCAR-5 ovarian, 16.3 µM. Besides, the GI50 in the assay with SK-MEL-2 melanoma was 2.92 µM; with SK-OV-3 ovarian, 3.18 µM. The TGI in the assay with A498 renal is 7.87 µM; in the assay on A549 NSCLC, > 100 µM; in the assay with ACHN renal, 24.1 µM; with DU-145 prostate, > 100 µM; in the assay on MCF7 breast it was > 100 µM; in the assay on OVCAR-5 ovarian, > 100 µM. In addition, the TGI worked out at 16.8 µM with SK-MEL-2 melanoma and 18.6 µM in the assay with SK-OV-3 ovarian.

On to `O=C(NOC[C@H](O)CO)c1ccc(F)c(F)c1Nc1ccc(I)cc1F`, for which the GI50 is < 0.01 µM and 0.00351 µM with A498 renal; 0.946 µM and 0.1 µM with A549 NSCLC; 11.3 µM and 1.67 µM in the assay with DU-145 prostate; > 76.5 µM in the assay on MCF7 breast; < 0.01 µM and 0.0036 µM in the assay on OVCAR-5 ovarian; < 0.01 µM and 0.00337 µM with SK-MEL-2 melanoma. The TGI was 0.0647 µM and 0.0694 µM with A498 renal; > 100 µM in the assay on A549 NSCLC; > 100 µM with ACHN renal; > 100 µM with DU-145 prostate; > 100 µM with MCF7 breast; > 100 µM in the assay with OVCAR-5 ovarian. In addition, the TGI in the assay with SK-OV-3 ovarian is > 100 µM.

Regarding `COc1ccc(-c2cs/c(=N\N=C\c3ccc(O)cc3O)n2/N=C/c2ccc(O)cc2O)cc1`, the GI50 in the assay on A498 renal is 1.75 µM; in the assay with A549 NSCLC, 1.89 µM; with ACHN renal, 1.8 µM; in the assay with DU-145 prostate, 2.21 µM; with MCF7 breast it was 1.9 µM; with OVCAR-5 ovarian it was 2.37 µM. Besides, the GI50 is 2.14 µM in the assay with SK-MEL-2 melanoma and 2.31 µM with SK-OV-3 ovarian. Also, the TGI in the assay on A498 renal came out at 3.81 µM; in the assay on A549 NSCLC, 4.62 µM; in the assay on ACHN renal, 3.84 µM; with DU-145 prostate, 5.84 µM; in the assay on MCF7 breast, 5.84 µM; in the assay with OVCAR-5 ovarian, 5.18 µM. The TGI with SK-MEL-2 melanoma was found to be 4.87 µM; in the assay with SK-OV-3 ovarian it was 5.02 µM.

In the case of `C=C(CC(NC(=O)c1ccc(C(CC)Cc2cnc3nc(N)nc(N)c3n2)cc1)C(=O)O)C(=O)O` (stereo unspecified), the TGI with A549 NSCLC, with ACHN renal, in the assay on DLD-1 colon, with KM20L2 colon, in the assay with LXFL 529 NSCLC and in the assay on SK-OV-3 ovarian was > 100 µM in each case. Besides, the TGI in the assay on SNB-78 CNS is > 100 µM. Besides, the GI50 with SK-OV-3 ovarian is 0.0669 µM.

Regarding `CC[C@H](Nc1ncnc2nc[nH]c12)c1nc2cccc(F)c2c(=O)n1-c1ccccc1`, the GI50 in the assay with A498 renal is 1.3 µM; with A549 NSCLC, 31.2 µM; in the assay on ACHN renal, 10.7 µM; with DU-145 prostate, 45.3 µM; with MCF7 breast it was 8.73 µM; in the assay with OVCAR-5 ovarian, 45 µM. For the same compound, the GI50 in the assay on SK-MEL-2 melanoma is 48.4 µM; in the assay with SK-OV-3 ovarian it was 16.7 µM. Besides, the TGI is 13 µM in the assay on A498 renal; > 100 µM with A549 NSCLC; > 100 µM with ACHN renal; > 100 µM with DU-145 prostate; > 100 µM with MCF7 breast; > 100 µM in the assay with OVCAR-5 ovarian. Also, the TGI with SK-MEL-2 melanoma and in the assay on SK-OV-3 ovarian was > 100 µM in each case.
